“And” between values parts separate entries of the source, which are not always exact repeats. Identical values can stand only once. Like-named read-outs stand apart in the source and are kept apart here.
Experiments:
Type in all cases: in vivo, human
patients with rHTN = assay: Study 121: seated blood pressure in patients with resistant hypertension (Example 8); details: for DBP decrease: after 12 weeks
Description: This study was a randomized, double-blind, placebo-controlled study to evaluate the efficacy and safety of baxdrostat in patients with rHTN. Patients with rHTN were defined as being on a stable regimen of ≥3 antihypertensive agents, one of which is a diuretic with a mean seated blood pressure (BP)≥130/80 mmHg. […] The secondary objectives were to evaluate the change from baseline in mean seated DBP with each of the selected dose strengths of baxdrostat compared to placebo and to evaluate the percentage of patients achieving a seated BP response<130/80 mmHg with each of the dose strengths of baxdrostat compared to placebo after 12 weeks of treatment. […] The study was planned to enroll 348 patients.
The primary endpoint was the placebo-adjusted change from baseline to week 12 of the mean office SBP. The secondary endpoints included the placebo-adjusted change from baseline to week 12 in seated office DBP, and the percentage of patients achieving a seated BP response<130/80 mmHg with each of the selected dose strengths of baxdrostat compared to placebo after 12 weeks of treatment for rHTN.
The point estimates for the main treatment effect and for the secondary endpoints were generated by mixed model analyses of covariance that included responder status as a fixed effect. […] The change from baseline in mean seated SBP will be analyzed using a mixed model for repeated measures (MMRM) model. The analysis includes fixed effects for treatment, visit, and treatment-by-visit interaction, along with covariates of the baseline mean seated SBP and baseline glomerular filtration rate. The restricted maximum likelihood estimation (REML) approach was used with an unstructured covariance matrix.

[1] = Multiple ascending dose study, pharmacokinetics (Example 2)
Method: This randomized, double-blind, placebo-controlled phase 1 study evaluated the safety, pharmacokinetics, and pharmacodynamics of multiple ascending doses of baxdrostat in healthy volunteers. Fifty-six subjects were randomized to receive oral baxdrostat (0.5, 1.5, 2.5, or 5.0 mg) or placebo once daily for ten days and were placed on either a low salt or normal salt diet for the duration of the study. In particular, subjects were randomized into 5 cohorts to receive baxdrostat or placebo once daily for 10 days. Cohorts 1 and 2 were placed on a low salt diet to stimulate aldosterone production and were administered 2.5 or 5.0 mg oral baxdrostat, respectively. Cohorts 1 and 2 also underwent an adrenocorticotropic hormone (ACTH) challenge to increase aldosterone and cortisol levels to evaluate the specificity of baxdrostat for targeting aldosterone synthase. Cohorts 3, 4, and 5 were placed on a normal salt diet and were administered 1.5, 2.5, or 0.5 mg oral baxdrostat, respectively. Blood samples were collected prior to and after dosing on days 1 and 10 for measurement of plasma baxdrostat concentrations to characterize single-dose and steady-state pharmacokinetics. Pharmacodynamic measurements included plasma aldosterone, cortisol, and electrolytes. Safety assessments included physical examination, electrocardiograms, orthostatic vital signs, and clinical laboratory evaluations.

[2] = Plasma PK of baxdrostat and baxdrostat-M in the metformin crossover study (Example 6A); details: single 10-mg dose of baxdrostat
Method: This study was designed as a phase 1, randomized, open-label, 2-period, crossover trial. Each subject participated in a screening period of up to 26 days followed by 2 inpatient treatment periods and a follow-up phone call. […] Plasma samples were extracted by protein precipitation with methanol, followed by analysis by LC-MS/MS with ESI(+) and MRM. Reversed-phase chromatographic separation with a mobile phase gradient of 20% to 90% was utilized, and total run time was approximately 5 minutes. […] PK parameters were calculated using noncompartmental methods with SAS software, version 9.4 (SAS Institute). […] Tmax; […] AUC0-t; AUC0-inf, AUC0-inf extrapolated; λz; and t1/2. Plasma AUC0-72 was assessed only for baxdrostat and baxdrostat-M. […] Urine PK parameters included Ae, renal clearance (calculated as Ae/AUC), and the fraction of dose excreted renally.

CCC(=O)N[C@@H]1CCCc2c(-c3ccc4c(c3)CCC(=O)N4C)cncc21 [baxdrostat, (R)—N-(4-(1-methyl-2-oxo-1,2,3,4-tetrahydroquinolin-6-yl)-5,6,7,8-tetrahydroisoquinolin-8-yl) propionamide]
DBP, LS mean change (SE) (patients with rHTN; 0.5 mg QD, 12 weeks): −8.6 (1.23) mmHg | DBP, LS mean difference vs placebo (SE) (patients with rHTN; 0.5 mg QD, 12 weeks): 0.5 (1.74) mmHg | SBP, LS mean difference vs placebo (SE) (patients with rHTN; 0.5 mg QD, 12 weeks): −2.7 (2.68) mmHg | SBP, LS mean change (SE) (patients with rHTN; 0.5 mg QD, 12 weeks, mITT): −12.1 (1.91) mmHg | treatment effect on SBP vs placebo (patients with rHTN; 0.5 mg, 12 weeks): modestly greater than that of placebo, but this difference did not reach statistical significance | DBP decrease (patients with rHTN; 0.5 mg): 8.6 mmHg | DBP, LS mean change (SE) (patients with rHTN; 1 mg QD, 12 weeks): −11.8 (1.26) mmHg | DBP, LS mean difference vs placebo (SE) (patients with rHTN; 1 mg QD, 12 weeks): −2.7 (1.75) mmHg | SBP, LS mean difference vs placebo (SE) (patients with rHTN; 1 mg QD, 12 weeks): −8.1 (2.7) mmHg and −8.1 (2.72) mmHg | SBP, LS mean change (SE) (patients with rHTN; 1 mg QD, 12 weeks, mITT): −17.5 (1.95) mmHg | placebo-adjusted SBP decline (patients with rHTN; 1 mg, 12 weeks): 8.1 mmHg | DBP decrease (patients with rHTN; 1 mg): 11.8 mmHg | DBP, LS mean change (SE) (patients with rHTN; 2 mg QD, 12 weeks): −14.3 (1.31) mmHg | DBP, LS mean difference vs placebo (SE) (patients with rHTN; 2 mg QD, 12 weeks): −5.2 (1.79) mmHg | SBP, LS mean difference vs placebo (SE) (patients with rHTN; 2 mg QD, 12 weeks): −11.0 (2.78) mmHg | SBP, LS mean change (SE) (patients with rHTN; 2 mg QD, 12 weeks, mITT): −20.3 (2.05) mmHg | DBP lowered compared to the placebo group (patients with rHTN; 2 mg, 12 weeks): 5.2 mmHg | model adjusted, placebo-corrected decline in SBP (patients with rHTN; 2 mg, 12 weeks): 11.0 mmHg | reduction in SBP (patients with rHTN; 2 mg, 12 weeks): 20.3 mmHg | DBP decrease (patients with rHTN; 2 mg): 14.3 mmHg | model adjusted and placebo-corrected change from baseline in SBP (patients with rHTN; 2 mg, intent to treat (ITT) analysis set): −11 mmHg | model adjusted and placebo-corrected change from baseline in SBP (patients with rHTN; 2 mg, per protocol analysis set): −11.1 mmHg | time course of SBP decrease (patients with rHTN; 12 weeks of treatment): rapid after treatment started and sustained throughout the 12 weeks of treatment | SBP, LS mean change (SE) (patients with rHTN; Female, 0.5 mg): −10.2 (2.77) | SBP, LS mean difference (SE) (patients with rHTN; Female, 0.5 mg vs placebo): 5.1 (4.12) | SBP, LS mean change (SE) (patients with rHTN; Female, 1 mg): −17.8 (2.74) | SBP, LS mean difference (SE) (patients with rHTN; Female, 1 mg vs placebo): −2.5 (4.09) | SBP, LS mean change (SE) (patients with rHTN; Female, 2 mg): −18.2 (3.01) | SBP, LS mean difference (SE) (patients with rHTN; Female, 2 mg vs placebo): −2.9 (4.27) | SBP, LS mean change (SE) (patients with rHTN; Hispanic/Latino Female, 0.5 mg): −15.9 (4.27) | SBP, LS mean difference (SE) (patients with rHTN; Hispanic/Latino Female, 0.5 mg vs placebo): 2.2 (5.93) | SBP, LS mean change (SE) (patients with rHTN; Hispanic/Latino Female, 1 mg): −11.5 (4.80) | SBP, LS mean difference (SE) (patients with rHTN; Hispanic/Latino Female, 1 mg vs placebo): 6.6 (6.33) | SBP, LS mean change (SE) (patients with rHTN; Hispanic/Latino Female, 2 mg): −19.4 (3.59) | SBP, LS mean difference (SE) (patients with rHTN; Hispanic/Latino Female, 2 mg vs placebo): −1.3 (5.46) | SBP, LS mean change (SE) (patients with rHTN; Hispanic/Latino, 0.5 mg): −13.3 (2.72) | SBP, LS mean difference (SE) (patients with rHTN; Hispanic/Latino, 0.5 mg vs placebo): −1.9 (3.94) | SBP, LS mean change (SE) (patients with rHTN; Hispanic/Latino, 1 mg): −16.7 (3.43) | SBP, LS mean difference (SE) (patients with rHTN; Hispanic/Latino, 1 mg vs placebo): −5.4 (4.46) | SBP, LS mean change (SE) (patients with rHTN; Hispanic/Latino, 2 mg): −21.8 (2.95) | SBP, LS mean difference (SE) (patients with rHTN; Hispanic/Latino, 2 mg vs placebo): −10.5 (4.10) | SBP, LS mean change (SE) (patients with rHTN; Male, 0.5 mg): −13.7 (2.59) | SBP, LS mean difference (SE) (patients with rHTN; Male, 0.5 mg vs placebo): −8.0 (3.53) | SBP, LS mean change (SE) (patients with rHTN; Male, 1 mg): −17.4 (2.76) | SBP, LS mean difference (SE) (patients with rHTN; Male, 1 mg vs placebo): −11.7 (3.66) | SBP, LS mean change (SE) (patients with rHTN; Male, 2 mg): −22.4 (2.73) | SBP, LS mean difference (SE) (patients with rHTN; Male, 2 mg vs placebo): −16.4 (3.63) | SBP, LS mean change (SE) (patients with rHTN; Not Hispanic/Latino, 0.5 mg): −10.9 (2.72) | SBP, LS mean difference (SE) (patients with rHTN; Not Hispanic/Latino, 0.5 mg vs placebo): −3.1 (3.75) | SBP, LS mean change (SE) (patients with rHTN; Not Hispanic/Latino, 1 mg): −17.9 (2.41) | SBP, LS mean difference (SE) (patients with rHTN; Not Hispanic/Latino, 1 mg vs placebo): −10.0 (3.52) | SBP, LS mean change (SE) (patients with rHTN; Not Hispanic/Latino, 2 mg): −19.2 (2.86) | SBP, LS mean difference (SE) (patients with rHTN; Not Hispanic/Latino, 2 mg vs placebo): −11.4 (3.84) | SBP, LS mean change (SE) (patients with rHTN; Other (not Hispanic/Latino Female), 0.5 mg): −11.1 (2.11) | SBP, LS mean difference (SE) (patients with rHTN; Other (not Hispanic/Latino Female), 0.5 mg vs placebo): −4.0 (2.99) | SBP, LS mean change (SE) (patients with rHTN; Other (not Hispanic/Latino Female), 1 mg): −18.7 (2.13) | SBP, LS mean difference (SE) (patients with rHTN; Other (not Hispanic/Latino Female), 1 mg vs placebo): −11.6 (3.00) | SBP, LS mean change (SE) (patients with rHTN; Other (not Hispanic/Latino Female), 2 mg): −20.9 (2.45) | SBP, LS mean difference (SE) (patients with rHTN; Other (not Hispanic/Latino Female), 2 mg vs placebo): −13.8 (3.24) | systolic and diastolic blood pressure (patients with rHTN; patients with resistant hypertension, FIGS. 10A and 10B): dose-dependent decreases | SBP reduction by subgroup (patients with rHTN; subgroup analyses, baseline to Day 85): greater reduction in SBP if they were male, white, not Hispanic or Latino, higher eGFR, and baseline SBP value of ≥145 mmHg | plasma levels of baxdrostat vs dose ([1]; 0.5 to 5.0 mg once daily): increased proportionally with ascending doses | time of peak concentrations after dosing ([1]; 0.5 to 5.0 mg once daily): ≤ 4 h | half-life ([1]; human, plasma, oral, 0.5 to 5.0 mg once daily): 26 to 31 h | absorption ([1]; oral, healthy subjects): rapidly absorbed | AUC% extrapolated ([2]; human): 8.36% | AUC(0-t) ([2]; human, read-out: AUC0-24, Mean): 1660 ng·h/mL | AUC(0-t) ([2]; human, read-out: AUC0-72, GM): 2790 ng·h/mL | AUC(0-t) ([2]; human, read-out: AUC0-72, Mean): 2870 ng·h/mL | AUC(0-inf) ([2]; human, read-out: AUC0-inf, GM): 2920 ng·h/mL | AUC(0-inf) ([2]; human, read-out: AUC0-inf, Mean): 3030 ng·h/mL | Cmax ([2]; human, read-out: Cmax, GM): 117 ng/mL | Cmax ([2]; human, read-out: Cmax, Mean): 119 ng/mL | Tmax ([2]; human, read-out: Tmax, GM): 1.54 h | Tmax ([2]; human, read-out: Tmax, Mean): 1.68 h | AUC0-24, GM [2]: 1637.461 ng·h/mL | λz, GM [2]: 0.032 h⁻¹ | λz, Mean [2]: 0.033 h⁻¹

Source: patent US20260041679A1, “METHOD OF TREATING HYPERTENSION WITH THE ALDOSTERONE SYNTHASE INHIBITOR BAXDROSTAT” (CINCOR PHARMA, INC., priority 2022, published 2026)
